# From a melting point compilation (Tetko et al.; mined from patent text by program, amines drawn as free bases though some values may be those of a salt)
row,SMILES,melting point [°C]
1,CC(c1ccc(F)cc1)N1CCN(c2cc(Oc3cccc4c(=O)[nH]ccc34)ncn2)CC1 (centres undefined),249
2,CC1(C)Oc2ccc(C(=O)CO)cc2[C@H](NC(=O)c2ccc(F)cc2)[C@H]1O,216
3,C/C(=C\c1ccc(OC(C)C)cc1Oc1ncc(C(F)(F)F)cc1Cl)C(=O)O,114
4,COc1ccc(C(=O)c2c(Cl)cc(Cl)cc2Cl)cc1Cc1ccc(=O)[nH]n1,179 to 180
5,CCOC(=O)P(=O)(O)C(=O)OCC,150 to 155
6,O=C(OCc1ccccc1)N1CCc2c([nH]c3ccccc23)C1c1ccc2c(c1)OCO2 (centres undefined),98 to 101
7,O=C1N(Cc2ccc(O)cc2)c2ccccc2C12COc1cc3c(cc12)CCO3 (centres undefined),226 to 227
8,O=C(Nc1ccc(C2CCCCC2)cc1)c1ncccc1O,91 to 93
9,c1cnc(SCc2nc3ccccc3[nH]2)nc1,154 to 155
10,ClCc1ccc(OCc2cn3c(Cl)cccc3n2)cc1,114 to 115
11,Nc1ccccc1NC(=O)c1cc2cccc(OCCO)c2o1,182 to 183
12,NC(=O)COC(=O)NCCC[C@H]1OC[C@H](c2ccc(Cl)c3ccccc32)CO1,176 to 178
13,OC1(Cn2cncn2)CCCCC12OC2c1ccc(Cl)cc1 (centres undefined),150
14,Cn1c(C(=O)NC2CCCCC2)nc(-c2ccc(Cl)cc2Cl)c1-c1ccc(Cl)cc1,165
15,Cc1cc(S(F)(F)(F)(F)F)ccc1C(=O)O,138 to 139
16,Nc1cc(=O)n(C2CCCC2)c2nc(N[C@H]3CC[C@H](O)CC3)ncc12,246 to 248
17,Cc1ccc(-c2cc(-c3ccc(F)cc3)c(C(=O)NCc3ccc(C(=O)NO)cc3)[nH]2)cc1,213 to 215
18,CCOC(=O)CCCCCCCC1CC2=C(C1)C(=O)C(OC)=C(OC)C2=O,39 to 40
19,O=C1Nc2ccc(Cl)cc2C(c2ccccc2)N1C1CCN(Cc2ccccc2)CC1 (centres undefined),> 230
20,CC(C)c1cc(Oc2ccc(Cl)cc2)nc(C(C)C)c1[N+](=O)[O-],102 to 104
21,CCOc1cc(OCCCc2cn(-c3ccc(C(F)(F)F)cc3)nc2OCC)ccc1CCC(=O)O,131 to 132
22,CCC(=O)c1cc(CC)c(OC)cc1OC,64 to 65
23,O=c1cc(C(F)(F)F)ncn1-c1c(Cl)cc(C(F)(F)F)cc1[N+](=O)[O-],149 to 150
24,CC1(C)OC(c2ccc(S(C)(=O)=O)cc2)=C(Br)C1=O,196
25,CCCCCCC1=CC(=C(Br)Br)NC1=O,103 to 105

row,SMILES,melting point [°C]
1,COc1ccc(C2=NN(C3CCN(S(=O)(=O)c4ccc(C)cc4)CC3)C(=O)CC2)cc1OC,179 to 184
2,CSc1nnc2c(=O)[nH]c(-c3ccccc3OCC3CC3)nc2n1,235 to 236
3,N#CC=C1CCN(c2ccc(N3C[C@H](CNC(=O)CBr)OC3=O)cc2F)CC1,160 to 162
4,O=C(O)C1c2ccccc2OCc2ncccc21 (centres undefined),139 to 140
5,C=C(C)C(=O)OCCCOc1cc(-n2nc3ccc(OC)cc3n2)c(O)c(C(C)(C)C)c1,114 to 116
6,CCOC(=O)N1CCC(C#N)(NC(=O)C(CC2CCCCC2)NC(=O)N2CCOCC2)CC1 (centres undefined),140 to 143
7,CC(=NO)c1cc2c(s1)CCCN(CCCCN1CCN(c3ncccn3)CC1)C2=O,144 to 146
8,CC(=CC(=O)c1ccc(C(=O)N2Cc3cccn3Cc3ccccc32)cc1)N(C)C,183 to 185
9,CC(C)n1cc(-c2ccc(Oc3ccccc3)c(CO)c2)c2c(Cl)ncnc21,157 to 159
10,CCC(=O)C(C#N)Cc1cc(Cl)cc(Cl)c1 (centres undefined),59 to 60
11,O=C(NNS(=O)(=O)c1cccc(F)c1)c1ccc2oc3ccccc3c2c1,223
12,CCOC(=O)C(C(=O)OCC)c1csc(N)n1,99.5 to 100
13,CCCNC(=O)c1ccc(CCCc2cc(S(C)(=O)=O)ccc2OCc2ccccc2)cc1,121
14,COc1cc(OC)c2c(=O)[nH]c(-c3ccc(OCCNC(C)C)c(-c4ccc(S(C)(=O)=O)cc4)n3)nc2c1,114 to 116
15,COc1ccc(Sc2cc(C(=O)O)c[nH]2)cc1,144 to 147
16,Cc1c(C(=O)Nc2ccc(N3CCC(N4CCOCC4)CC3)c(C#N)c2)cnn1-c1ccccc1,223
17,O=C1CCN(Cc2ccc([N+](=O)[O-])cc2)CC1C(c1ccc(F)cc1)c1ccc(F)cc1 (centres undefined),118 to 119
18,CCOCC1(O)CCN(c2ccc(N3C[C@H](CNC(C)=O)OC3=O)cc2F)CC1,76 to 78
19,CC(C)(C)c1cc(C(c2ccc(F)cc2)N2CCCCC2)c(O)c(C(C)(C)C)c1 (centres undefined),135 to 136
20,CCc1nc2ccn(-c3ccccc3)n2c(=O)c1C(=O)O,119 to 120
21,CC(C)(CN)Cc1ccc(CC(C)(C)CN)cc1,53 to 56
22,Cc1c(C(=O)O)cnn1-c1nc(-c2ccc(Cl)c(Cl)c2)cs1,278 to 279
23,CCCc1ccnc2c(=O)[nH]c(-c3cc(S(=O)(=O)N4CCNCC4)ccc3OCC)nc12,178 to 180
24,CCCCCCC(=O)c1ccc(OCC(=O)O)c(Cl)c1Cl,104 to 105
25,CC1(C)Cc2cc(S(N)(=O)=O)ccc2O1,157 to 160

row,SMILES,melting point [°C]
1,O=C1N(N2CCOCC2)c2ccccc2C1(Cc1ccnc(F)c1)c1ccccc1 (centres undefined),170 to 172
2,CCOC(=O)C1=CC(C(=O)c2cc(Cl)ccc2O)=CN2CCc3c([nH]c4ccc(OC)cc34)C12C(=O)OCC (centres undefined),230
3,O=Cc1c2ccsc2cc2c1ccc1ccccc12,178 to 180
4,CCCn1cccc1C(N)=S,88 to 91
5,CC1COCC(C)N1c1cccc([N+](=O)[O-])c1 (centres undefined),127 to 128
6,Cc1nc(N2CCN(Cc3csc4ccc(Cl)cc34)C2=O)sc1C(=O)NCc1cccnc1,185 to 187
7,N#Cc1c(Cl)[nH]c2ccccc12,177 to 180
8,COc1nc(-c2ccc3c(c2)OCO3)c2cc3c(cc2n1)OCO3,216 to 223
9,Cc1nn(C)c2c1N=C(C1CC1)N1CC(C)N=C21 (centres undefined),107 to 110
10,OCCC(=C(c1ccccc1)c1ccccc1)c1ccccc1,117 to 119
11,Clc1ccc(OCCN2CCN3CC=C(c4ccncc4)N=C32)cc1,211 to 213
12,Clc1cc2cc[nH]c2cn1,192 to 194
13,Cc1c(C#N)c(N)n(-c2c(Br)cc(C(F)(F)F)cc2Br)c1C,158 to 161
14,O=C(CCCl)c1ccc2[nH]c3ccccc3c2c1,148 to 151
15,CCOC(=O)c1ccc2nc(C)n(Cc3ccccc3Cl)c2c1,126 to 127
16,CC(C)(C)OC(=O)N1CCN(c2ccc(Nc3ncc4ccc(N)nc4n3)cc2)CC1,219 to 220
17,CCCc1c(OCc2ccc(C=CC(=O)OC)cc2)ccc(C(C)=O)c1O,121 to 125
18,Cc1oc(-c2ccccc2)nc1COc1ccc(CN(O)C(N)=O)cc1Cl,180 to 182
19,Cc1ccccc1Nc1ccccc1C=C(Br)Br,65 to 67
20,COc1ccc2c(-c3ccccc3)c(C(=O)c3ccc(Cl)cc3)sc2c1,115
21,OC(c1ccccc1)C1CCN1C(c1ccccc1)c1ccccc1 (centres undefined),87.5 to 88.5
22,Cc1ccc(C2c3c(C)c(Br)c(C)c(C4OCCO4)c3OC2(C)C)cc1 (centres undefined),169 to 172
23,CCOC(=O)c1ncc2[nH]c3ccc(C(=O)N4CCCCC4)cc3c2c1C,212 to 218
24,CCCCCC(=O)Nc1ccc2ccn(CCCCCCCC#N)c2c1,85 to 86
25,OCC(O)Cc1cc(Cl)c2ccccc2c1OCc1ccccc1 (centres undefined),69 to 71

row,SMILES,melting point [°C]
1,c1ccc(COc2ccc(CCCCn3ccnc3)cc2)cc1,97 to 98
2,CCc1cc(NCc2ccc3oc(-c4ccccc4C#N)c(Br)c3c2)n2nccc2n1,186 to 194
3,Cc1c(C)c2c(c(C)c1NCc1ccccc1)OC(C)(C)C2=O,79 to 83
4,Cn1cncc1C(O)(c1ccc(Cl)cc1)c1ccc2c(c1)c(-c1cccc(Cl)c1)cc1cnnn12 (centres undefined),222
5,O=c1ccccn1[C@@H]1C[C@H](O)[C@@H](O)[C@H]1O (racemic),138 to 140
6,CCOCC(O)(COCC)C(Cc1cc(OC)cc(OC)c1)NC(=O)OC(C)(C)C (centres undefined),73.5 to 75
7,COC1C(O)CCC(O)(CSc2ccccc2)C1C1(C)OC1CC=C(C)C (centres undefined),94 to 96
8,COc1ccc(C(=O)c2ccc(OCc3nc(-c4ccccc4)oc3C)nc2)c(O)c1,137 to 138
9,Cc1cn(C(C)C(=O)Nc2ccccc2)nc1-c1ccccc1 (centres undefined),79 to 82
10,O=C1CCC(N2Cc3c(OCC4COc5ccccc5C4)cccc3C2=O)C(=O)N1 (centres undefined),258 to 260
11,COc1ccc(S(=O)(=O)C2(CCCC#Cc3ccc(Cl)cc3)SC(=O)N(C)C2=O)cc1 (centres undefined),113 to 115
12,COc1ccc(C(=O)Nc2ccc(Cl)c(Cl)c2)cc1NCc1cccc(F)c1,153 to 155
13,CCC1(Cl)Cc2cc(OCCCC(=O)O)c(Cl)c(Cl)c2C1=O (centres undefined),123 to 124
14,N#CCCN(N)c1nc2cccc(Cl)c2o1,114 to 115
15,CCOC(=O)/C=C/c1sc(SC)c2c1CCCC2=O,104 to 105
16,COc1ccc(-c2cc3nc(CNCC(C)O)c4ccccc4c3nn2)cc1 (centres undefined),147 to 149
17,CN(C(=O)CN1C(=O)C(NC(=O)Nc2cccc(C#N)c2)N=C(CN2CCCCC2)c2ccccc21)c1ccccc1 (centres undefined),145 to 150
18,Cc1ccccc1Nc1c(C(=O)C(C)C)cnc2c(O)cccc12,131 to 133
19,O=C1CNc2ncc(-c3ccc(C(=O)N4CCC[C@H]4CN4CCCC4)cc3)cc2N1Cc1cc(F)ccc1F,125
20,O=C(Nc1cc(OCCCO/N=C/c2ccc(C(F)(F)F)cc2)ccc1C(=O)O)c1ccc(C(F)(F)F)cc1,209 to 210
21,Cc1nc2cccc([N+](=O)[O-])c2s1,120 to 121
22,Nc1ncccc1NCc1ccc(Oc2ccc(F)cc2)cc1,117 to 118
23,O=C(O)C1Cc2c(c(Cl)cc3c(-c4ccccc4Cl)noc23)O1 (centres undefined),220 to 222
24,O=C(O)c1cccc(Br)c1Nc1ccccc1Br,181 to 182
